For test [1], the system named is P. xylostella. Also noted: key to behavioral effect of plant volatile on P. xylostella (attractive / repellent): Refers to plant volatiles that are attractive to P. xylostella; b: Refers to plant volatiles that are repellent to P. xylostella. As to conditions: cited from earlier work; for behavioral effect of plant volatile on P. xylostella (attractive / repellent): footnote marks of Table 2, ref 37,45,46,47,48 (a), ref 49,50,51 (b).

Test [2] deals with T1, PxylCSP9 (Plutella xylostella, UniProt A0A8S4FJE6). The test is described as follows: Binding of fluorescent probe Bis-ANS to PxylCSP9 (titration, Scatchard plot). The following applies: 1 μM protein, 50 mM Tris-HCl pH 7.4, probe 1 to 10 μM, read-out: dissociation constant of PxylCSP9/Bis-ANS complex. The procedure:
To identify the ligands that bind to PxylCSP9, we selected several typical chemical components from the host plants of P. xylostella for fluorescence competitive binding experiments. The purity of all ligands and the fluorescent probe 4,4′-dianilino-1,1′-binaphthyl-5,5′-sulfonate (Bis-ANS) was ≥95%, which was purchased from Aladdin (Shanghai, China) or Sigma-Aldrich (St. Louis, MO, USA.). All the compounds were dissolved individually in chromatography-grade methanol (Aladdin, Shanghai, China) to prepare 1 mM stock solutions. Fluorescence competitive binding assays were performed using an RF-5301 Fluorescence Spectrophotometer (Shimadzu, Kyoto, Japan) with a quartz cuvette of a 1 cm path length. The excitation and emission slit widths were both set to 5 nm. The excitation wavelength of the fluorescent probe was 365 nm, and the emission spectra were recorded from 400 to 580 nm.
The affinity of Bis-ANS for PxylCSP9 was measured by titrating a 1 μM solution of the protein in 50 mM Tris-HCl (pH 7.4) with aliquots of 1 mM Bis-ANS stock solution to final probe concentrations ranging from 1 to 10 μM. In competitive binding assays, the ligand concentrations ranging from 0 to 10 μM were added to a solution containing PxylCSP9 (1 μM) and Bis-ANS (1 μM). […]

Test [3] deals with P. xylostella. Details: method as in doi:10.1111/j.1744-7917.2004.tb00178.x, doi:10.1111/jen.13144, PMID 29474734. As to conditions: cited from earlier work.
In test [4] the target is T1, PxylCSP9. The test is described as follows: Fluorescence competitive binding assay (Bis-ANS probe displacement).
Experimental: The purity of all ligands and the fluorescent probe 4,4′-dianilino-1,1′-binaphthyl-5,5′-sulfonate (Bis-ANS) was ≥95%, which was purchased from Aladdin (Shanghai, China) or Sigma-Aldrich (St. Louis, MO, USA.). All the compounds were dissolved individually in chromatography-grade methanol (Aladdin, Shanghai, China) to prepare 1 mM stock solutions. […] The excitation and emission slit widths were both set to 5 nm. The excitation wavelength of the fluorescent probe was 365 nm, and the emission spectra were recorded from 400 to 580 nm.
In competitive binding assays, the ligand concentrations ranging from 0 to 10 μM were added to a solution containing PxylCSP9 (1 μM) and Bis-ANS (1 μM). All data were analyzed based on the assumptions that the protein was 100% active and that binding followed a 1:1 stoichiometry (protein:ligand) at saturation. The binding curves for Bis-ANS were linearized using a Scatchard plot. The dissociation constants of the competitors were calculated from their corresponding IC50 values using the following equation: Ki = [IC50]/(1 + [Bis-ANS]/KBis-ANS), where IC50 is the ligand concentration that reduces the initial fluorescence intensity of Bis-ANS by half, [Bis-ANS] is the free concentration of Bis-ANS, and KBis-ANS is the dissociation constant of the PxylCSP9/Bis-ANS complex.
The subject of test [5] is certain lepidopteran insects. Details: method as in PMID 40195004, doi:10.1023/A:1020990018111, doi:10.1023/A:1020750029362. As to conditions: cited from earlier work.

In general, IC50 refers to the concentration that gives 50% inhibition. As a reminder, the Ki is a measure of affinity in units of concentration, obtained from inhibition or displacement.

T1 sequence (A0A8S4FJE6 entry or part of it): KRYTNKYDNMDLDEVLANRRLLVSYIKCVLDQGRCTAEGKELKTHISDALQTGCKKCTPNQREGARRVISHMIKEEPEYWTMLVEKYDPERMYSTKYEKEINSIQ

Consider `CCCCCCCCC=O` [1-Nonanal], for which the “behavioral effect of plant volatile on P. xylostella (attractive / repellent)” value in the test with P. xylostella [1] was 1-Nonanal ^a. Take `CCCC(C)CC(C)C` (centres unmarked) [2,4-Dimethylheptane]: the “behavioral effect of plant volatile on P. xylostella (attractive / repellent)” value in the test on P. xylostella [1] is 2,4-Dimethylheptane ^b. Consider `CCCCCCCC(C)C` [2-Methylnonane], for which the “behavioral effect of plant volatile on P. xylostella (attractive / repellent)” value in the test with P. xylostella [1] was 2-Methylnonane ^b. Consider `CCC/C=C/C=O` [(E)-2-Hexenal], for which, in the test on P. xylostella [1], the “behavioral effect of plant volatile on P. xylostella (attractive / repellent)” value is “(E)-2-Hexenal ^a”. For `C=C(C)[C@@H]1CC=C(C)C(=O)C1` [(R)-(-)-Carvone], in the test on P. xylostella [1], the “behavioral effect of plant volatile on P. xylostella (attractive / repellent)” value is listed as “(R)-(-)-Carvone ^b”. As for `C=CCN=C=S` [Allyl isothiocyanate], the “feeding and oviposition behaviors in P. xylostella” value in the test on P. xylostella [1] was “induce feeding and oviposition behaviors”. Consider `O=S(=O)(O)c1cccc2c(-c3ccc(Nc4ccccc4)c4c(S(=O)(=O)O)cccc34)ccc(Nc3ccccc3)c12` [Bis-ANS, 4,4′-dianilino-1,1′-binaphthyl-5,5′-sulfonate], for which the Kd at PxylCSP9 [2] amounted to 4.86 ± 0.04 µM.

Take `C=C(C)C1CC=C(C)CC1` (centres unmarked) [Limonene]: in the test with P. xylostella [3], the “EAG response of P. xylostella” value is “effectively stimulate the EAG response”. Also, in the test with P. xylostella [1], the “behavioral avoidance response of P. xylostella” value was “significantly induce its behavioral avoidance response”, the oviposition deterrent effects entry was “oviposition deterrent effects” and the “behavioral effect of plant volatile on P. xylostella (attractive / repellent)” value is “Limonene ^b”. For the molecule `C=CC(C)(O)CCC=C(C)C` (centres unmarked) [Linalool], the “behavioral effect of plant volatile on P. xylostella (attractive / repellent)” value in the test with P. xylostella [1] is “Linalool ^b”. In the case of `CC(=O)CCC=C(C)C` [Methyl heptenone], at PxylCSP9 [4] (PxylCSP9 1 μM, Bis-ANS 1 μM, 50 mM Tris-HCl pH 7.4, ligand concentration halving Bis-ANS fluorescence), the 50% inhibitory concentration (IC50) amounted to 20.1 ± 1.98 µM. Further, the Ki on PxylCSP9 [4] (calculated from IC50: Ki = [IC50]/(1 + [Bis-ANS]/KBis-ANS)) is 17 µM. Turning to `C=CC(=C)CCC=C(C)C` [Myrcene], the “EAG response of P. xylostella” value with P. xylostella [3] is “effectively stimulate the EAG response”. Moreover, in the test on P. xylostella [1], the “behavioral avoidance response of P. xylostella” value is “significantly induce its behavioral avoidance response” and the “behavioral effect of plant volatile on P. xylostella (attractive / repellent)” value was “Myrcene ^b”. As to `OCCc1ccccc1` [Phenethyl alcohol], the “EAG responses and attractive behaviors” value in test [5] was “elicit electroantennogram (EAG) responses and attractive behaviors”. Besides, in the test with P. xylostella [1], the “behavioral effect of plant volatile on P. xylostella (attractive / repellent)” value is recorded as “Phenethyl alcohol ^a”.

`CC1=CC=C(C(C)C)CC1` [α-Terpinene]: in the test on P. xylostella [3], the “EAG response of P. xylostella” value is “effectively stimulate the EAG response”. In the test with P. xylostella [1], the “behavioral avoidance response of P. xylostella” value is “significantly induce its behavioral avoidance response”, the oviposition deterrent effects entry is “oviposition deterrent effects” and the “behavioral effect of plant volatile on P. xylostella (attractive / repellent)” value was “α-Terpinene ^b”.

The values above are taken from publication PMC12730722, “Identification and Functional Characterization of the Leg-Enriched Chemosensory Protein PxylCSP9 in Plutella xylostella (Lepidoptera: Plutellidae)” (Biology, 2025).
